Assay results: patent US20090226500A1, “SUTURES AND ANTI-SCARRING AGENTS” (Angiotech Pharmaceuticals, Inc, priority 2006, published 2009)
Where two headings read alike, the source gives them in different places.

Key:
Smooth muscle cells = assay: Proliferation of smooth muscle cells; format: cell-based; settings: 72 hours, CYQUANT; read-out: IC50 proliferation of smooth muscle cells
How it was run: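 Smooth muscle cells at 600 cells/well, exposed to paclitaxel (DMSO stocks 10^−8 to 10^−2 M) in triplicate for 72 h at 37 °C. Proliferation read with CyQUANT GR dye in lysis buffer.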

[1] = system: IL-1β production by THP-1 cells; assay: IL-1β production by macrophages; format: cell-based, human; settings: Homo sapiens, read-out: IC50 IL-1β production
[2] = system: TNFα production by THP-1 cells; assay: TNF-alpha production by macrophages; format: cell-based, human; settings: Homo sapiens; THP-1 cells stimulated with opsonized zymosan, 24 hours; read-out: IC50 TNFα production
How it was run: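 THP-1 cells (1×10^6 per well, 10% FCS) were stimulated with 1 mg/ml serum-opsonized zymosan and incubated with drug in triplicate for 24 h at 37 °C. TNFα in the supernatants was quantified by sandwich ELISA (HRP/TMB read-out) against a recombinant human TNFα standard curve.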

[3] = system: IL-8 production by THP-1 cells; assay: IL-8 production by macrophages; format: cell-based, human; settings: Homo sapiens, read-out: IC50 IL-8 production
Experimental: The human macrophage cell line, THP-1 was plated in a 12 well plate such that each well contains 1×10^6 cells in 2 ml of media containing 10% FCS. Opsonized zymosan was prepared by resuspending 20 mg of zymosan A in 2 ml of ddH2O and homogenizing until a uniform suspension was obtained. Homogenized zymosan was pelleted at 250 g, resuspended in 4 ml of human serum for a final concentration of 5 mg/ml, and incubated in a 37° C. water bath for 20 minutes to enable opsonization. Geldanamycin was prepared in DMSO at a concentration of 10^−2 M and serially diluted 10-fold to give a range of stock concentrations (10^−8 M to 10^−2 M).
THP-1 cells were stimulated to produce IL-8 by the addition of 1 mg/ml opsonized zymosan. Geldanamycin was added to THP-1 cells by directly adding DMSO stock solutions, prepared earlier, at a 1/1000 dilution, to each well. Each drug concentration was tested in triplicate wells. Plates were incubated at 37° C. for 24 hours.
After a 24-hour stimulation, supernatants were collected to quantify IL-8 production. IL-8 concentrations in the supernatants were determined by ELISA using recombinant human IL-8 to obtain a standard curve. A 96-well MAXISORB plate was coated with 100 μL of anti-human IL-8 Capture Antibody diluted in Coating Buffer (0.1M sodium carbonate pH 9.5) overnight at 4° C. The dilution of Capture Antibody used was lot-specific and was determined empirically. Capture antibody was then aspirated and the plate washed 3 times with Wash Buffer (PBS, 0.05% TWEEN-20). Plates were blocked for 1 hour at room temperature with 200 μL/well of Assay Diluent (PBS, 10% FCS pH 7.0). After blocking, plates were washed 3 times with Wash Buffer. Standards and sample dilutions were prepared as follows: (a) sample supernatants were diluted 1/100 and 1/1000; (b) recombinant human IL-8 was prepared at 200 pg/ml and serially diluted to yield as standard curve of 3.1 pg/ml to 200 pg/ml Sample supernatants and standards were assayed in triplicate and were incubated at room temperature for 2 hours after addition to the plate coated with Capture Antibody The plates were washed 5 times and incubated with 100 μL of Working Detector (biotinylated anti-human IL-8 detection antibody+avidin-HRP) for 1 hour at room temperature. Following this incubation, the plates were washed 7 times and 100 μL of Substrate Solution (Tetramethylbenzidine, H2O2) was added to plates and incubated for 30 minutes at room temperature. Stop Solution (2 NH2SO4) was then added to the wells and a yellow color reaction was read at 450 nm with A correction at 570 nm. Mean absorbance was determined from triplicate data readings and the mean background was subtracted. IL-8 concentration values were obtained from the standard curve. […] The IC50 values for the following additional compounds were determined using this assay: IC50 (nM): 17-AAG, 56; mycophenolic acid, 549; resveratrol, 507; rapamycin, 4; 41; SP600125, 344; halofuginone, 641; D-mannose-6-phosphate, 220; epirubicin hydrochloride, 654; topotemay, 257; mithramycin, 33; daunorubicin, 421; celastrol, 490; chromomycin A3, 36

[4] = THP-1 cells stimulated with opsonized zymosan, 24 hours

SMILES	IC50 (Smooth muscle cells)	IC50 ([1]; THP-1, 24 h)	IC50 [2]	IC50 ([3]; THP-1, 24 h)	IC50 [1, 4]	IC50 [3, 4]
CC1=C(O)C(=O)C=C2C1=CC=C1[C@@]2(C)CC[C@@]2(C)[C@@H]3C[C@](C)(C(=O)O)CC[C@]3(C)CC[C@]12C [celastrol]	493 nM	23 nM	87 nM	490 nM	–	–
COc1c(C)c2c(c(O)c1C/C=C(\C)CCC(=O)O)C(=O)OC2 [mycophenolic acid]	579 nM	–	756 nM	–	2890 nM	549 nM
